Literature values, collected in patent US6984402B2, “Chrono delivery formulations and method of treating atrial fibrillation” (Elite Laboratories, Inc., priority 2000, dated 2006).

half-life in blood (humans): 3 to 4 h
absolute bioavailability (oral, compared with intravenous administration): 40%
SMILES: COc1ccc([C@@H]2Sc3ccccc3N(CCN(C)C)C(=O)[C@@H]2OC(C)=O)cc1 [diltiazem]
